Test results as given in US20260325504A1, “Genetically Engineered Human Pituitary Corticotroph Tumor Organoids Exhibit Divergent Responses to Selective Glucocorticoid Receptor Modulators” (Corcept Therapeutics Incorporated, priority 2022, published 2026).
“Also recorded” adds a separate entry of the source.

Experiments:
[1] = tested on: FKBP5; test: FKBP5 expression (GR target gene, qRT-PCR) in PitNET organoids; type: cell-based, human; conditions: PitNET organoids (iPSCctrl, iPSCUSP48MV, iPSCUSP8), 48 h, FIG. 16A-C
Experimental: (§1) Sonic Hedgehog (SHH) was withdrawn from the organoid growth media 16 hours prior to treatment. The experimental treatment groups included: vehicle (Veh), mifepristone (500 nM, Selleckchem S2606), GANT61 (5 μM, Stemcell Technologies 73692), ketoconazole (Keto, 10 μM, Selleckchem S1353), pasireotide (Pas, 100 nM, Target Mol TP2207-SB001), octreotide (Oct, 100 nM, Selleckchem P1017), mifepristone plus GANT61, mifepristone plus Keto, mifepristone plus Pas, relacorilant (500 nM, Corcept Therapeutics CORT125134), relacorilant plus Pas, relacorilant plus Oct, or dexamethasone (Dexa, 100 nM, SIGMA S4902). In the combination treatments, cultures were pretreated with the GANT61, Keto, Pas or Oct for 2 hours prior to treatment with mifepristone or Rela. PitNET tissue derived organoids hPITO36, hPITO37, hPITO38, hPITO39, and hPITO40 were treated with the following experimental conditions: Vehicle (1), pasireotide (2), relacorilant (3), relacorilant & pasireotide (4), mifepristone (5), mifepristone & pasireotide (6). The IC50 values used for each hPITO line for each drug were determined based on dose responses (FIG. 12). All organoid cultures were treated for 48 hours prior to analysis.
RNA was extracted from PitNET tissue or iPSC generated organoids using TRI Reagent® (Molecular Research Center Inc TR118) and the High Capacity cDNA Reverse Transcription Kit (Applied Biosystems, Foster City, CA) was used for cDNA synthesis of RNA following the recommended protocol. For each sample, 60 ng RNA was reverse transcribed to yield approximately […] total cDNA that was then used for the qRT-PCR. Pre-designed real-time polymerase chain reaction assays were purchased for the following genes: TPit (Thermo Fisher Scientific 4331182 Hs00193027), SF1 (Thermo Fisher Scientific 4331182 Hs00610436), SSTR2 (Thermo Fisher Scientific 4331182 Hs00265624_s1), SSTR5 (Thermo Fisher Scientific 4331182 Hs00990407_s1), POMC (Thermo Fisher Scientific 4331182 Hs01596743_ml), hPRT (Thermo Fisher Scientific 4331182 Hs02800695_ml), and FKBP5 (Thermo Fisher Scientific 4331182 Hs01561006_m1). Polymerase chain reaction amplifications were performed in a total volume of 20 μL containing 20× TaqMan Expression Assay primers, 2× TaqMan Universal Master Mix (Applied Biosystems, TaqMan® Gene Expression Systems), and cDNA template. Each polymerase chain reaction amplification was performed in triplicate wells in a StepOne Real-Time PCR System (Applied Biosystems) by using the following conditions: 500C 2 minutes, 95° C. […] Fold change was calculated as the following: (Ct-Ct high)=n target, 2ntarget/2nHPRT=fold change where Ct=threshold cycle. The results were expressed as average fold change in or differential gene expression relative to control, with HPRT used as an internal control according to Livak and Schmittgen.

[2] = tested on: SSTR5; test: Differential expression of SSTR5 (qRT-PCR) in iPSC generated pituitary organoids; type: cell-based, human; conditions: for differential expression of SSTR5: iPSCctrl organoids, compound alone, 48 h, FIG. 5C, D; for effect on mifepristone-induced SSTR5 expression / effect on relacorilant-induced SSTR5 expression: iPSC organoids; for effect on mifepristone-induced SSTR5 expression: pretreatment 2 h before mifepristone (500 nM); for effect on relacorilant-induced SSTR5 expression: pretreatment 2 h before relacorilant (500 nM)
Experimental: as §1
(§2) RNA was extracted from PitNET tissue or iPSC generated organoids using TRI Reagent® (Molecular Research Center Inc TR118) and the High Capacity cDNA Reverse Transcription Kit (Applied Biosystems, Foster City, CA) was used for cDNA synthesis of RNA following the recommended protocol. For each sample, 60 ng RNA was reverse transcribed to yield approximately […] total cDNA that was then used for the qRT-PCR. Pre-designed real-time polymerase chain reaction assays were purchased for the following genes: TPit (Thermo Fisher Scientific 4331182 Hs00193027), SF1 (Thermo Fisher Scientific 4331182 Hs00610436), SSTR2 (Thermo Fisher Scientific 4331182 Hs00265624_s1), SSTR5 (Thermo Fisher Scientific 4331182 Hs00990407_s1), POMC (Thermo Fisher Scientific 4331182 Hs01596743_ml), hPRT (Thermo Fisher Scientific 4331182 Hs02800695_ml), and FKBP5 (Thermo Fisher Scientific 4331182 Hs01561006_m1). Polymerase chain reaction amplifications were performed in a total volume of 20 μL containing 20× TaqMan Expression Assay primers, 2× TaqMan Universal Master Mix (Applied Biosystems, TaqMan® Gene Expression Systems), and cDNA template. Each polymerase chain reaction amplification was performed in triplicate wells in a StepOne Real-Time PCR System (Applied Biosystems) by using the following conditions: 500C 2 minutes, 95° C. 10 minutes, 95° C. 15 seconds (denature) and 60° C. 1 minute (anneal/extend) for 40 cycles. Fold change was calculated as the following: (Ct-Ct high)=n target, 2ntarget/2nHPRT=fold change where Ct=threshold cycle. The results were expressed as average fold change in or differential gene expression relative to control, with HPRT used as an internal control according to Livak and Schmittgen.

[3] = tested on: SSTR2; test: Differential expression of SSTR2 (qRT-PCR) in iPSC generated pituitary organoids; type: cell-based, human; conditions: for differential expression of SSTR2: iPSCctrl organoids, compound alone, 48 h, FIG. 5C, D; for effect on mifepristone-induced SSTR2 expression / effect on relacorilant-induced SSTR2 expression: iPSC organoids; for effect on mifepristone-induced SSTR2 expression: pretreatment 2 h before mifepristone (500 nM); for effect on relacorilant-induced SSTR2 expression: pretreatment 2 h before relacorilant (500 nM)
Experimental: as §1, §2

[4] = tested on: SSTR2; conditions: cited from earlier work
[5] = tested on: iPSC^USP48MV organoids; test: EdU uptake (proliferation) in iPSCUSP48MV organoids; type: cell-based, human; conditions: 100 nM pretreatment 2 h before mifepristone
Experimental: (§3) iPSCs were stained for pituitary specific hormones including luteinizing hormone (LH), follicle-stimulating hormone (FSH), growth hormone (GH), prolactin (PRL), ACTH, cytokeratin 8/18 (CAM5.2), pituitary transcription factor PIT-1 and neuroendocrine marker Synaptophysin (Table 5). Cultures were immunostained for proliferation marker EdU (Click-IT EdU Alexa Fluor 555 Imaging Kit, Thermo Fisher Scientific C10338). Antibody dilutions were determined based on manufacturer guidelines and antibody titration (Table 5). Staining was conducted according to previously published protocols. Briefly, organoids and iPSCs grown in 8-well glass bottom chamber slides were fixed using 3.7% formaldehyde, washed with DPBS, permeabilized with 0.5% Triton X-100 (SIGMA X-100, PBS-T, 20 min at room temperature), washed with 0.01% PBS-T, and blocked with 2% donkey serum (Jackson Immuno Research 017-000-121) for 1 hour at room temperature. After blocking, primary antibodies were added and incubated overnight at 4° C. Slides were washed with 0.01% PBS-T and incubated with secondary antibodies (Table 5) with Hoechst (Thermo Fisher Scientific H1399) for 1 hour at room temperature. Organoids were washed and stored in PBS at 4° C. until microscopic analysis. High content confocal microscopy was performed using the Nikon Ti2-E Inverted Microscope (with a Crest X-Light V2 L-FOV Spinning Disk Confocal) at the University of Arizona Cancer Center, or a ZEISS LSM880 34 channel Laser Scanning Confocal Microscope at University of Arizona Marley Imaging Core. Fluorescence intensity was quantified as the percentage of marker-positive cells versus total cells, using Nikon Elements Software (Version 5.21.05). Proliferation for each iPSC line was quantified as the percentage of EdU-positive cells versus total cells.
as §1, with “PitNET tissue derived organoids hPITO36, hPITO37, hPITO38, hPITO39, and hPITO40 were treated with the following experimental conditions: Vehicle (1), pasireotide (2), relacorilant (3), relacorilant & pasireotide (4), mifepristone (5), mifepristone & pasireotide (6).” left out, “All organoid cultures were treated for 48 hours prior to analysis.” left out

[6] = tested on: iPSC^ctrl organoids; test: EdU uptake (proliferation) in iPSCctrl organoids; type: cell-based, human; conditions: 100 nM pretreatment 2 h before mifepristone
Experimental: as §3
as §1, with “PitNET tissue derived organoids hPITO36, hPITO37, hPITO38, hPITO39, and hPITO40 were treated with the following experimental conditions: Vehicle (1), pasireotide (2), relacorilant (3), relacorilant & pasireotide (4), mifepristone (5), mifepristone & pasireotide (6).” left out, “All organoid cultures were treated for 48 hours prior to analysis.” left out

[7] = tested on: iPSC^USP48MV organoids; test: ACTH secretion ELISA, iPSCUSP48 organoids; type: cell-based, human; conditions: iPSCUSP48, 100 nM pretreatment 2 h before mifepristone, FIG. 7G
Experimental: as §1
(§4) Organoid conditioned media was collected and ACTH secretion using an ELISA according to the manufacturer's protocol (Novus Biologicals Human ACTH ELISA Kit NBP2-66401). The optical density was measured at a wavelength of 450 nm, and ACTH concentration (pg/mL) was interpolated using a standard curve with a 4-parameter logistic regression analysis using GraphPad Prism (v9.3.1).

[8] = tested on: iPSC^ctrl organoids; test: ACTH secretion ELISA, iPSCctrl organoids; type: cell-based, human; conditions: 100 nM pretreatment 2 h before mifepristone, FIG. 6G
Experimental: as §1, §4

[9] = tested on: Hedgehog pathway; conditions: by blocking activation of SMO or GLI1/GLI2; cited from earlier work

## C[C@@H]1C[C@H]2[C@@H]3CCC4=CC(=O)C=C[C@]4(C)[C@@]3(F)[C@@H](O)C[C@]2(C)[C@@]1(O)C(=O)CO [dexamethasone]
[1]
  differential expression of FKBP5: significant induction in gene expression
[2]
  differential expression of SSTR5: significantly decreased expression
[3]
  differential expression of SSTR2: significantly decreased expression

## C[C@@H](O)[C@@H]1NC(=O)[C@H](CCCCN)NC(=O)[C@@H](Cc2c[nH]c3ccccc23)NC(=O)[C@H](Cc2ccccc2)NC(=O)[C@@H](NC(=O)[C@H](N)Cc2ccccc2)CSSC[C@@H](C(=O)N[C@H](CO)[C@@H](C)O)NC1=O [octreotide]
[4]
  binding to / activation of SSTR2: preferentially binds or activates somatostatin receptor type 2 (SSTR2)
[5]
  effect on proliferative response to mifepristone (EdU uptake): inhibited
[6]
  effect on proliferative response to mifepristone (EdU uptake): inhibited
[7]
  effect on ACTH secretion in response to mifepristone: inhibition by octreotide was greater that pasireotide
[7]; listed as Oct
  effect on ACTH secretion in response to mifepristone: significantly reduced ACTH secretion
[8]
  effect on ACTH secretion in response to mifepristone: inhibition by octreotide was greater that pasireotide
[8]; listed as Oct
  effect on ACTH secretion in response to mifepristone: significantly reduced ACTH secretion

## CC(C)[C@@H]1NC(=O)[C@H](CCCCN)NC(=O)[C@@H](Cc2c[nH]c3ccccc23)NC(=O)[C@H](Cc2ccc(O)cc2)NC(=O)[C@@H](NC(=O)[C@H](N)Cc2ccc3ccccc3c2)CSSC[C@@H](C(=O)N[C@H](C(N)=O)[C@@H](C)O)NC1=O [lanreotide]
[4]
  binding to / activation of SSTR2: preferentially binds or activates somatostatin receptor type 2 (SSTR2)

## CC(=O)N1CCN(c2ccc(OCC3COC(Cn4ccnc4)(c4ccc(Cl)cc4Cl)O3)cc2)CC1 (stereo not shown) [ketoconazole]
[2]
  effect on mifepristone-induced SSTR5 expression: no effect; also recorded: failed to block the induction
  effect on relacorilant-induced SSTR5 expression: no effect; also recorded: failed to block the induction
  differential expression of SSTR5: no effect
[2]; listed as ketoconozaole
  effect on mifepristone-induced SSTR5 expression: no effect
  effect on relacorilant-induced SSTR5 expression: no effect
[3]
  effect on mifepristone-induced SSTR2 expression: no effect; also recorded: failed to block the induction
  effect on relacorilant-induced SSTR2 expression: failed to block the induction
  differential expression of SSTR2: no effect
[3]; listed as ketoconozaole
  effect on mifepristone-induced SSTR2 expression: no effect
  effect on relacorilant-induced SSTR2 expression: no effect
[9]
  cell proliferation: reduce cell proliferation and cell viability
  cell viability: reduce cell proliferation and cell viability

## CN(C)c1ccccc1CN1CCCN(Cc2ccccc2N(C)C)C1c1ccncc1 [GANT61]
[2]
  effect on mifepristone-induced SSTR5 expression: blocks SSTR2 and SSTR5 expression; also recorded: reduced; also recorded: inhibited
  effect on relacorilant-induced SSTR5 expression: reduced the induction of SSTR5 expression; also recorded: blocks SSTR2 and SSTR5 expression; also recorded: inhibited
  differential expression of SSTR5: no effect
[3]
  effect on mifepristone-induced SSTR2 expression: reduced the induction of SSTR2 expression; also recorded: blocks SSTR2 and SSTR5 expression; also recorded: inhibited
  effect on relacorilant-induced SSTR2 expression: blocks SSTR2 and SSTR5 expression; also recorded: inhibited
  differential expression of SSTR2: no effect
[9]
  cell proliferation: reduce cell proliferation and cell viability
  cell viability: reduce cell proliferation and cell viability
